Laboratory results: patent US8137705B2 (priority 2005, dated 2012)

What was measured:
Assay type in all cases: cell-based
E. coli O26:H11 = E. coli O26:H11 counts in water containing rumen content or feces treated with chemical combinations; settings: 21° C.; for E. coli O26:H11 counts (log10 cfu/ml) at min: 0: 0 min; for E. coli O26:H11 counts (log10 cfu/ml) at min: 2: 2 min; for E. coli O26:H11 counts (log10 cfu/ml) at min: 5: 5 min; for E. coli O26:H11 counts (log10 cfu/ml) at min: 10: 10 min; for E. coli O26:H11 counts (log10 cfu/ml) at min: 20: 20 min; for E. coli O26:H11 counts (log10 cfu/ml) at min: 30: 30 min; for E. coli O26:H11 counts (log10 cfu/ml) at min: 60: 60 min; for E. coli O26:H11 counts (log10 cfu/ml) at min: 120: 120 min
E. coli O111:NM = E. coli O111:NM counts in water containing rumen content or feces treated with chemical combinations; settings: 21° C.; for E. coli O111:NM counts (log10 cfu/ml) at min 0: 0 min; for E. coli O111:NM counts (log10 cfu/ml) at min 2: 2 min; for E. coli O111:NM counts (log10 cfu/ml) at min 5: 5 min; for E. coli O111:NM counts (log10 cfu/ml) at min 10: 10 min; for E. coli O111:NM counts (log10 cfu/ml) at min 20: 20 min; for E. coli O111:NM counts (log10 cfu/ml) at min 30: 30 min; for E. coli O111:NM counts (log10 cfu/ml) at min 60: 60 min; for E. coli O111:NM counts (log10 cfu/ml) at min 120: 120 min
E. coli O157:H7 = E. coli O157:H7 counts in water containing rumen content or feces treated with chemicals or chemical combinations; settings: 21° C.; for E. coli O157:H7 counts (log10 cfu/ml) at min 0: 0 min; for E. coli O157:H7 counts (log10 cfu/ml) at min 2: 2 min; for E. coli O157:H7 counts (log10 cfu/ml) at min 5: 5 min; for E. coli O157:H7 counts (log10 cfu/ml) at min 10: 10 min; for E. coli O157:H7 counts (log10 cfu/ml) at min 20: 20 min; for E. coli O157:H7 counts (log10 cfu/ml) at min 30: 30 min; for E. coli O157:H7 counts (log10 cfu/ml) at min 60: 60 min; for E. coli O157:H7 counts (log10 cfu/ml) at min 120: 120 min
[1] = water containing feces (20:1, v/w)
[2] = water containing rumen content (10:1, v/w)

O=C([O-])c1ccccc1.[Na+] [0.1% sodium benzoate, sodium benzoate]
E. coli O26:H11 counts (log10 cfu/ml) at min: 0 (E. coli O26:H11; [1]): 5.5 log10 cfu/ml
E. coli O26:H11 counts (log10 cfu/ml) at min: 2 (E. coli O26:H11; [1]): 5.4 log10 cfu/ml
E. coli O26:H11 counts (log10 cfu/ml) at min: 5 (E. coli O26:H11; [1]): 5.5 log10 cfu/ml
E. coli O26:H11 counts (log10 cfu/ml) at min: 10 (E. coli O26:H11; [1]): 5.4 log10 cfu/ml
E. coli O26:H11 counts (log10 cfu/ml) at min: 20 (E. coli O26:H11; [1]): 5.5 log10 cfu/ml
E. coli O26:H11 counts (log10 cfu/ml) at min: 30 (E. coli O26:H11; [1]): 5.4 log10 cfu/ml
E. coli O26:H11 counts (log10 cfu/ml) at min: 60 (E. coli O26:H11; [1]): 5.5 log10 cfu/ml
E. coli O26:H11 counts (log10 cfu/ml) at min: 120 (E. coli O26:H11; [1]): 5.4 log10 cfu/ml
E. coli O26:H11 counts (log10 cfu/ml) at min: 0 (E. coli O26:H11; [2]): 5.6 log10 cfu/ml
E. coli O26:H11 counts (log10 cfu/ml) at min: 2 (E. coli O26:H11; [2]): 5.5 log10 cfu/ml
E. coli O26:H11 counts (log10 cfu/ml) at min: 5 (E. coli O26:H11; [2]): 5.4 log10 cfu/ml
E. coli O26:H11 counts (log10 cfu/ml) at min: 10 (E. coli O26:H11; [2]): 5.5 log10 cfu/ml
E. coli O26:H11 counts (log10 cfu/ml) at min: 20 (E. coli O26:H11; [2]): 5.5 log10 cfu/ml
E. coli O26:H11 counts (log10 cfu/ml) at min: 30 (E. coli O26:H11; [2]): 5.5 log10 cfu/ml
E. coli O26:H11 counts (log10 cfu/ml) at min: 60 (E. coli O26:H11; [2]): 5.4 log10 cfu/ml
E. coli O26:H11 counts (log10 cfu/ml) at min: 120 (E. coli O26:H11; [2]): 5.5 log10 cfu/ml
E. coli O111:NM counts (log10 cfu/ml) at min 0 (E. coli O111:NM; [1]): 5.6 log10 cfu/ml
E. coli O111:NM counts (log10 cfu/ml) at min 2 (E. coli O111:NM; [1]): 5.6 log10 cfu/ml
E. coli O111:NM counts (log10 cfu/ml) at min 5 (E. coli O111:NM; [1]): 5.6 log10 cfu/ml
E. coli O111:NM counts (log10 cfu/ml) at min 10 (E. coli O111:NM; [1]): 5.7 log10 cfu/ml
E. coli O111:NM counts (log10 cfu/ml) at min 20 (E. coli O111:NM; [1]): 5.6 log10 cfu/ml
E. coli O111:NM counts (log10 cfu/ml) at min 30 (E. coli O111:NM; [1]): 5.5 log10 cfu/ml
E. coli O111:NM counts (log10 cfu/ml) at min 60 (E. coli O111:NM; [1]): 5.5 log10 cfu/ml
E. coli O111:NM counts (log10 cfu/ml) at min 120 (E. coli O111:NM; [1]): 5.6 log10 cfu/ml
E. coli O111:NM counts (log10 cfu/ml) at min 0 (E. coli O111:NM; [2]): 5.6 log10 cfu/ml
E. coli O111:NM counts (log10 cfu/ml) at min 2 (E. coli O111:NM; [2]): 5.6 log10 cfu/ml
E. coli O111:NM counts (log10 cfu/ml) at min 5 (E. coli O111:NM; [2]): 5.5 log10 cfu/ml
E. coli O111:NM counts (log10 cfu/ml) at min 10 (E. coli O111:NM; [2]): 5.6 log10 cfu/ml
E. coli O111:NM counts (log10 cfu/ml) at min 20 (E. coli O111:NM; [2]): 5.6 log10 cfu/ml
E. coli O111:NM counts (log10 cfu/ml) at min 30 (E. coli O111:NM; [2]): 5.5 log10 cfu/ml
E. coli O111:NM counts (log10 cfu/ml) at min 60 (E. coli O111:NM; [2]): 5.4 log10 cfu/ml
E. coli O111:NM counts (log10 cfu/ml) at min 120 (E. coli O111:NM; [2]): 5.5 log10 cfu/ml
E. coli O157:H7 counts (log10 cfu/ml) at min 0 (E. coli O157:H7; [1]): 5.7 log10 cfu/ml
E. coli O157:H7 counts (log10 cfu/ml) at min 2 (E. coli O157:H7; [1]): 5.6 log10 cfu/ml
E. coli O157:H7 counts (log10 cfu/ml) at min 5 (E. coli O157:H7; [1]): 5.4 log10 cfu/ml
E. coli O157:H7 counts (log10 cfu/ml) at min 10 (E. coli O157:H7; [1]): 5.6 log10 cfu/ml
E. coli O157:H7 counts (log10 cfu/ml) at min 20 (E. coli O157:H7; [1]): 5.5 log10 cfu/ml
E. coli O157:H7 counts (log10 cfu/ml) at min 30 (E. coli O157:H7; [1]): 5.4 log10 cfu/ml
E. coli O157:H7 counts (log10 cfu/ml) at min 60 (E. coli O157:H7; [1]): 5.5 log10 cfu/ml
E. coli O157:H7 counts (log10 cfu/ml) at min 120 (E. coli O157:H7; [1]): 5.6 log10 cfu/ml
E. coli O157:H7 counts (log10 cfu/ml) at min 0 (E. coli O157:H7; [2]): 5.9 log10 cfu/ml
E. coli O157:H7 counts (log10 cfu/ml) at min 2 (E. coli O157:H7; [2]): 6.0 log10 cfu/ml
E. coli O157:H7 counts (log10 cfu/ml) at min 5 (E. coli O157:H7; [2]): 6.0 log10 cfu/ml
E. coli O157:H7 counts (log10 cfu/ml) at min 10 (E. coli O157:H7; [2]): 5.9 log10 cfu/ml
E. coli O157:H7 counts (log10 cfu/ml) at min 20 (E. coli O157:H7; [2]): 6.0 log10 cfu/ml
E. coli O157:H7 counts (log10 cfu/ml) at min 30 (E. coli O157:H7; [2]): 5.9 log10 cfu/ml
E. coli O157:H7 counts (log10 cfu/ml) at min 60 (E. coli O157:H7; [2]): 6.0 log10 cfu/ml
E. coli O157:H7 counts (log10 cfu/ml) at min 120 (E. coli O157:H7; [2]): 6.1 log10 cfu/ml
